Values of other authors, collected in patent US7429390B2, “Stable pharmaceutical compositions, processes for making the same and methods of their use” (priority 2007, dated 2008).
Like-named read-outs stand apart in the source and are kept apart here.

CNC(=C[N+](=O)[O-])NCCSCc1ccc(CN(C)C)o1 [compound of Formula I, N-[2-[[[5-(dimethylamino)methyl-2-furanyl]methyl]thio]ethyl]-N′-methyl-2-nitro-1,1-ethenediamine]
time to symptomatic relief (GERD, after starting therapy with 150 mg b.i.d.): ≤ 24 h | time to symptomatic relief of heartburn (endoscopically diagnosed erosive esophagitis, therapy initiation with 150 mg b.i.d.): ≤ 24 h | time in which most patients heal (short-term treatment of active duodenal ulcer): ≤ 4 weeks | time in which most patients heal (short-term treatment of active, benign gastric ulcer): ≤ 6 weeks
